Measured values: ChEMBL document CHEMBL3608267, “Identification of dialkyl diacetylene diols with potent cancer chemopreventive activity” (Bioorg Med Chem Lett, 2015)

Key:
[1] = target: NAD(P)H dehydrogenase [quinone] 1 (Mus musculus) (UniProt Q64669); assay: Induction of NQO1 in mouse Hepa-1c1c7 cells assessed as drug concentration required to double induction by quinone reductase assay; type: cell-based
[2] = Toxicity against mouse Hepa-1c1c7 cells assessed as inhibition of cell proliferation; type: cell-based
[3] = Chemopreventive index, ratio of IC50 for mouse Hepa-1c1c7 cells to drug concentration required to double induction of NQO1 in mouse Hepa-1c1c7 cells

Chain of NAD(P)H dehydrogenase [quinone] 1 (Mus musculus) (Q64669 whole entry): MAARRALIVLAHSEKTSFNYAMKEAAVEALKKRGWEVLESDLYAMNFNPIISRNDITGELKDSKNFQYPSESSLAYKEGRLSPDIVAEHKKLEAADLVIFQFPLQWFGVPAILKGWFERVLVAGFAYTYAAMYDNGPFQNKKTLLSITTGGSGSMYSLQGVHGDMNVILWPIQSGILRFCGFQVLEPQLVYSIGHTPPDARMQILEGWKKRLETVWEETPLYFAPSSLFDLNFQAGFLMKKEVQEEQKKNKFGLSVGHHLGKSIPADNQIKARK

Row | SMILES | CD [1] | IC50 [2] | Ratio [3]
1 | CCCCC[C@H](O)C#CC#C[C@H](O)CCCCC | 4.7 µM | 68 µM | 14
2 | CCCCCCCCCC(O)C#CC#CC(O)CCC (stereo not drawn) | 4.2 µM | 30 µM | 7.2
3 | CCCC(O)C#CC#CC(O)C1CCCCC1 (stereo not drawn) | 6.2 µM | > 50 µM | >8.1
4 | CC(C)CC(O)C#CC#CC(O)C1CCCCC1 (stereo not drawn) | 5.6 µM | > 50 µM | >8.9
5 | CCCCC[C@@H](O)C#CC#C[C@H](O)CCCCC | 0.6 µM | 12 µM | 20
6 | C=CCCCCC/C=C\[C@@H](O)C#CC#C[C@@H](O)[C@H](C)O | 8.2 µM | > 50 µM | >6.1
7 | CCCCCCCCCC(O)C#CC#CC(O)C1CCCCC1 (stereo not drawn) | 11 µM | 44 µM | 4
8 | C[S+]([O-])CCCCN=C=S (stereo not drawn) [SULFORAPHANE] | 0.4 µM | 11 µM | 27
9 | CCCCCCCCCC(O)C#CC#CC(O)CCCCCCCCC (stereo not drawn) | 26 µM | 26 µM | 1
10 | CCCCCCCCCC(O)C#CC#CC(O)CC(C)C (stereo not drawn) | 10 µM | > 50 µM | >5
11 | CCCCCC(O)C#CC#CCO (racemic) | 4.7 µM | > 50 µM | >11
12 | CCCCCC(O)C#CC#CC(O)C1CCCCC1 (mixture of isomers) | 3.2 µM | > 50 µM | >16
13 | CCCCC[C@H](O)C#CC#CCO | 3.2 µM | > 100 µM | >31
14 | CCCCCC(O)C#CC#CC(O)CCCCC (mixture of isomers) | 3.1 µM | > 50 µM | >16
15 | OC(C#CC#CC(O)C1CCCCC1)C1CCCCC1 (stereo not drawn) | 8.4 µM | > 50 µM | >6
16 | CCCCCCCCCC(O)C#CC#CC(O)CCCCC (stereo not drawn) | 2.6 µM | 12 µM | 4.6
17 | CCCCCC(O)C#CC#CC(O)CC(C)C (stereo not drawn) | 1.3 µM | 41 µM | 32
18 | CCCCCC(O)C#CC#CC(O)CCC (stereo not drawn) | 0.8 µM | 19 µM | 24
19 | CCCCC[C@@H](O)C#CC#CCO | 2.3 µM | > 100 µM | >43
20 | CCCC(O)C#CC#CCO (stereo not drawn) | 6 µM | > 50 µM | >8.3
21 | CCCCC[C@H](O)C#CC#C[C@@H](O)CCCCC | 2.6 µM | 47 µM | 18
